Patent publication US8148391B2 (Cephalon, Inc., priority 2006, dated 2012)
Like-named read-outs stand apart in the source and are kept apart here.

Columns and labels:
[1] = target: T1, baculovirus-expressed ALK (Homo sapiens, UniProt Q9UM73); assay: ALK Kinase Assay (ELISA-type, time-resolved fluorescence); assay type: biochemical
T1 construct: host or cells: baculovirus expression system
Summary of the method: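 Plates coated with phospholipase C-γ substrate (10 μg/mL in TBS); reaction started with 30 ng/ml ALK and run 15 min at 37° C. Phosphorylated substrate detected with Eu-N1-labeled PT66 antibody. IC50 from sigmoidal variable-slope fit of percent inhibition vs log concentration.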

[2] = target: T2, c-Met (cytoplasmic domain) (Homo sapiens, UniProt P08581); assay: c-Met Kinase Assay (same methods as for ALK, with modifications); assay type: biochemical
T2 construct: 10 ng/mL c-Met (cytoplasmic domain, Invitrogen Corporation #PV3143); purchased Invitrogen Corporation PV3143
T2 sequence (P08581 956-1390 limits assumed): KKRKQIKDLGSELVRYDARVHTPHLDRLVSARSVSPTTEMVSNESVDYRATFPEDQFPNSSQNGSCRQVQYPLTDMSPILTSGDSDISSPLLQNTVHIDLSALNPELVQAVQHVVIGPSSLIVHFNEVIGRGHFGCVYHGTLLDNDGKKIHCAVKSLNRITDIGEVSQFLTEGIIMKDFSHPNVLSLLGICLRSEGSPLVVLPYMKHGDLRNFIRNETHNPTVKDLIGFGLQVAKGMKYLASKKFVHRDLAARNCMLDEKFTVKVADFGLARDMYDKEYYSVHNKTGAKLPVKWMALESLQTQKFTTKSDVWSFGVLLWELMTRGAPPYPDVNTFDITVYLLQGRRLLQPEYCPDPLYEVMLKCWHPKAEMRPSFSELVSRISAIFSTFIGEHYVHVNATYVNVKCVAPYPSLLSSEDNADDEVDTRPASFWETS
Summary of the method: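 Europium-labeled PT66 antibody (Eu-N1) detects substrate phosphorylation on wells coated with phospholipase C-γ at 10 μg/mL. The kinase, the cytoplasmic domain of c-Met at 10 ng/mL, starts the reaction, which proceeds 15 minutes at 37° C.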

[3] = 1 μM ATP (Km level), read-out: ALK Activity (ALK Kinase Inhibition, IC50)
[4] = 1 μM ATP (Km level), read-out: cMet Activity (c-Met Kinase Inhibition, IC50)
[5] = 1 μM ATP (Km level), 30 ng/ml ALK, 37° C., 15 minutes, read-out: ALK Activity (ALK kinase inhibition, IC50 class)
[6] = 1 μM ATP (Km level), 10 ng/mL c-Met, read-out: cMet Activity (c-Met kinase inhibition, IC50 class)
[7] = ALK kinase inhibition, 1 μM ATP, read-out: ALK Activity
[8] = c-Met kinase inhibition, 1 μM ATP, read-out: cMet Activity
[9] = ALK kinase inhibition, 1 μM ATP (Km level), read-out: ALK Activity
[10] = c-Met kinase inhibition, 1 μM ATP (Km level), read-out: cMet Activity

T1 sequence (Q9UM73 19-1620): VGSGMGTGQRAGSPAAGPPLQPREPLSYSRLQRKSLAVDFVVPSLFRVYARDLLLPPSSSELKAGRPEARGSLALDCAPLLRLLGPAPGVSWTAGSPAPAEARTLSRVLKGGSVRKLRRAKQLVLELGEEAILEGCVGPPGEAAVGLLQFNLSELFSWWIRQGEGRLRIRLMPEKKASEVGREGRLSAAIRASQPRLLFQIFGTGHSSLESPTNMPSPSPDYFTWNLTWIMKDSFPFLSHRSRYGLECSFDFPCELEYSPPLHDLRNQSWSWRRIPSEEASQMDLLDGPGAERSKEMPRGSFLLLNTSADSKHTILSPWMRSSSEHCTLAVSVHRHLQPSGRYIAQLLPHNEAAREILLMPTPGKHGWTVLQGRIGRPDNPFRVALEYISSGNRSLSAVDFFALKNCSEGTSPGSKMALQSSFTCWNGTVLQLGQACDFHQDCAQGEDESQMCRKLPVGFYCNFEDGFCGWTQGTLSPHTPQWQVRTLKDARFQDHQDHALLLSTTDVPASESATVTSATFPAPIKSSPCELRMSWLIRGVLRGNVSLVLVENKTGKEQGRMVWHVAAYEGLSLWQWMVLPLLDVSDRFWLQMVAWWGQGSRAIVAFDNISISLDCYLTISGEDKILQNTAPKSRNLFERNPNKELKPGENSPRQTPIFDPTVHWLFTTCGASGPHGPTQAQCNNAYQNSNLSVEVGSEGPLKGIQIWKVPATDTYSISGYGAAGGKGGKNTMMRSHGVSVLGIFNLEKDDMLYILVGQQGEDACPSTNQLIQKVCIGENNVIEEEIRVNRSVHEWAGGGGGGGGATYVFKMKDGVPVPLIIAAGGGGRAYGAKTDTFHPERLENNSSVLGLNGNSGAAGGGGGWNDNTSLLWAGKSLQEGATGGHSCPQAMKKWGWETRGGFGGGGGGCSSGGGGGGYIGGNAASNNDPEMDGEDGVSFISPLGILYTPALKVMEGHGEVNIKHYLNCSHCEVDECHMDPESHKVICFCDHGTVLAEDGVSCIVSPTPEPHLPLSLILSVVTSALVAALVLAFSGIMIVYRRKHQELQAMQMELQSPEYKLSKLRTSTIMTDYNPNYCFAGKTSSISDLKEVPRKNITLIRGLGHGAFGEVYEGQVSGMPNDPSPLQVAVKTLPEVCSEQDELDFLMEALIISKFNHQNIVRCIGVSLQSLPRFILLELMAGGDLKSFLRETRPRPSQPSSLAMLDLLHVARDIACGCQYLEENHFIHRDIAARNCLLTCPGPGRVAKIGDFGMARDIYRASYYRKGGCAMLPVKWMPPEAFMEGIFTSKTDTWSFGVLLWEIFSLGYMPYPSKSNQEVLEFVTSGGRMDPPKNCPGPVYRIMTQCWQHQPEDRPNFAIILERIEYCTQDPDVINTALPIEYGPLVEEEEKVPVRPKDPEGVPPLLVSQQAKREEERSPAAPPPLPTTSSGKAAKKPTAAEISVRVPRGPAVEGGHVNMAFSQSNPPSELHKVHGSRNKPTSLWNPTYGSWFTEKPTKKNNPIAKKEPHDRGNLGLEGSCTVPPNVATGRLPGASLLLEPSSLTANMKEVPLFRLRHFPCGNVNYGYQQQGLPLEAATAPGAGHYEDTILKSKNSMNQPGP

COCCNC1CCc2cc(Nc3ncc(Cl)c(N[C@@H]4CCCC[C@H]4NS(C)(=O)=O)n3)c(OC)cc2CC1 (stereo partly drawn) [Example 895, N-((1R,2R)-2-{5-Chloro-2-[3-methoxy-7-(2-methoxy-ethylamino)-6,7,8,9-tetrahydro-5H-benzocyclohepten-2-ylamino]-pyrimidin-4-ylamino}-cyclohexyl)-methanesulfonamide] gave an IC50 [1, 3] of under 100 nM and an IC50 [2, 4] of over 10000 nM.

COc1ccc2c(c1Nc1ncc(Cl)c(Nc3ccccc3S(=O)(=O)N(C)C)n1)CCC(N1CCOCC1)CC2 (stereo not drawn) [Example 1072, 2-[5-Chloro-2-(2-methoxy-7-morpholin-4-yl-6,7,8,9-tetrahydro-5H-benzocyclohepten-1-ylamino)-pyrimidin-4-ylamino]-N,N-dimethyl-benzenesulfonamide] was tested, and the IC50 [1, 5] was 100 to 1000 nM and the IC50 [2, 6] was over 10000 nM.

CC1(C)NC(=O)CCc2ccc(Nc3ncc(Cl)c(NC4C5C=CC(C5)C4C(N)=O)n3)cc21 (stereo not drawn) [Example 1832, 3-(5-Chloro-2-(1,1-dimethyl-3-oxo-2,3,4,5-tetrahydro-1H-benzo[c]azepin-8-ylamino)pyrimidin-4-ylamino)bicyclo[2.2.1]hept-5-ene-2-carboxamide] gave an IC50 [1, 7] of under 100 nM and an IC50 [2, 8] of under 100 nM.

CNC(=O)c1ccc(C(F)(F)F)cc1Nc1nc(Nc2ccc3c(c2)CCOC(=O)N3C)ncc1Cl [Example 1754, 2-[5-Chloro-2-(5-methyl-6-oxo-5,6,8,9-tetrahydro-7-oxa-5-aza-benzocyclohepten-2-ylamino)-pyrimidin-4-ylamino]-N-methyl-4-trifluoromethyl-benzamide] showed an IC50 [1, 7] of 100 to 1000 nM and an IC50 [2, 8] of 100 to 1000 nM.

CCN1C(=O)CCCc2ccc(Nc3ncc(Cl)c(Nc4c(F)cccc4C(=O)NC)n3)cc21 [Example 358, 2-[5-Chloro-2-(1-ethyl-2-oxo-2,3,4,5-tetrahydro-1H-benzo[b]azepin-8-ylamino)pyrimidin-4-ylamino]-3-fluoro-N-methyl-benzamide] gave an IC50 [1, 9] of under 100 nM and an IC50 [2, 10] of under 100 nM.

In the case of COc1cc(N2CCOCC2)ccc1Nc1nc(Nc2ccc3c(c2)NC(=O)CCC3(C)C)ncc1Cl [Example 1234, 8-[5-Chloro-4-(2-methoxy-4-morpholin-4-yl-phenylamino)-pyrimidin-2-ylamino]-5,5-dimethyl-1,3,4,5-tetrahydro-1-benzazepin-2-one], the IC50 [1, 5] is reported as under 100 nM and the IC50 [2, 6] is reported as 100 to 1000 nM.

Work on CCCNC(=O)c1ccccc1Nc1nc(Nc2ccc3c(c2)C(C)(C)CCC(=O)N3)ncc1Cl [Example 1022, 2-[5-Chloro-2-(5,5-dimethyl-2-oxo-2,3,4,5-tetrahydro-1H-benzo[b]azepin-7-ylamino)-pyrimidin-4-ylamino]-N-propyl-benzamide] yielded an IC50 [1, 5] of under 100 nM and an IC50 [2, 6] of 100 to 1000 nM.

C#CCNC(=O)c1cc(F)cc(F)c1Nc1nc(Nc2ccc3c(c2)CCN(CCOC)CC3)ncc1Cl [Example 1728, 2-{5-Chloro-2-[3-(2-methoxy-ethyl)-2,3,4,5-tetrahydro-1H-benzo[d]azepin-7-ylamino]-pyrimidin-4-ylamino}-3,5-difluoro-N-prop-2-ynyl-benzamide] gave an IC50 [1, 7] of 100 to 1000 nM and an IC50 [2, 8] of under 100 nM.

CNC(=O)c1ccccc1Nc1nc(Nc2ccc3c(c2)CCN(C[C@H](OC)C(F)(F)F)CC3)ncc1Cl [Example 335, 2-{5-Chloro-2-[3-((S)-3,3,3-trifluoro-2-methoxy-propyl)-2,3,4,5-tetrahydro-1H-benzo[d]azepin-7-ylamino]-pyrimidin-4-ylamino}-N-methyl-benzamide] gave an IC50 [1, 9] of under 100 nM and an IC50 [2, 10] of under 100 nM.

With CC1(C)CCC(=O)Nc2cc(Nc3ncc(Cl)c(Nc4ccc(N5CCOCC5)cc4OCCC#N)n3)ccc21 [Example 1690, 3-{2-[5-Chloro-2-(5,5-dimethyl-2-oxo-2,3,4,5-tetrahydro-1H-benzo[b]azepin-8-ylamino)-pyrimidin-4-ylamino]-5-morpholin-4-yl-phenoxy}-propionitrile] the IC50 [1, 7] was under 100 nM and the IC50 [2, 8] was 1000 to 10000 nM.

CCN1CCc2ccc(Nc3ncc(Cl)c(NCCNS(C)(=O)=O)n3)cc2CC1 [Example 298, N-{2-[5-Chloro-2-(3-ethyl-2,3,4,5-tetrahydro-1H-benzo[d]azepin-7-ylamino)-pyrimidin-4-ylamino]-ethyl}-methanesulfonamide] showed an IC50 [1, 9] of 100 to 1000 nM and an IC50 [2, 10] of 1000 to 10000 nM.

With COCCN1CCc2ccc(Nc3ncc(Cl)c(N[C@@H]4CCC[C@@H](N(CC#N)S(C)(=O)=O)C4)n3)cc2CC1 (relative stereo) [Example 1382, rel-N-((1R,3R)-3-{5-Chloro-2-[3-(2-methoxy-ethyl)-2,3,4,5-tetrahydro-1H-benzo[d]azepin-7-ylamino]-pyrimidin-4-ylamino}-cyclohexyl)-N-cyanomethyl-methanesulfonamide] the IC50 [1, 5] was 100 to 1000 nM and the IC50 [2, 6] was 1000 to 10000 nM.

Work on COc1cc2c(cc1Nc1ncc(Cl)c(Nc3ccc(N(C)C)cc3OC)n1)CCN(Cc1ncco1)CC2 [Example 1172, 5-Chloro-N*4*-(4-dimethylamino-2-methoxy-phenyl)-N*2*-(8-methoxy-3-oxazol-2-ylmethyl-2,3,4,5-tetrahydro-1H-benzo[d]azepin-7-yl)-pyrimidine-2,4-diamine] yielded an IC50 [1, 5] of under 100 nM and an IC50 [2, 6] of over 10000 nM.

CNC(=O)c1ccccc1Nc1nc(Nc2ccc3c(c2)CCCC(=O)N3CCOC)ncc1C(F)(F)F [Example 921, 2-{2-[1-(2-Methoxyethyl)-2-oxo-2,3,4,5-tetrahydro-1H-benzo[b]azepin-7-ylamino]-5-trifluoromethylpyrimidin-4-ylamino}-N-methylbenzamide] showed an IC50 [1, 3] of under 100 nM and an IC50 [2, 4] of under 100 nM.

CC(C)[C@H](Nc1nc(Nc2ccc3c(c2)CCOC(=O)N3C)ncc1Cl)C(N)=O [Example 1764, (S)-2-[5-chloro-2-(5-methyl-6-oxo-5,6,8,9-tetrahydro-7-oxa-5-aza-benzocyclohepten-2-ylamino)-pyrimidin-4-ylamino]-3-methyl-butyramide] showed an IC50 [1, 7] of 1000 to 10000 nM and an IC50 [2, 8] of over 10000 nM.

For CN1CCN(c2ccc(Nc3nc(Nc4ccc5c(c4)C(C)(C)CCC(=O)N5)ncc3Cl)c(-n3cccn3)c2)CC1 [Example 628, 7-{5-Chloro-4-[4-(4-methyl-piperazin-1-yl)-2-pyrazol-1-yl-phenylamino]-pyrimidin-2-ylamino}-5,5-dimethyl-1,3,4,5-tetrahydro-benzo[b]azepin-2-one], the IC50 [1, 3] was under 100 nM and the IC50 [2, 4] was 1000 to 10000 nM.

CN(C)S(=O)(=O)c1ccccc1Nc1nc(Nc2ccc3c(c2)CCC(O)CC3)ncc1Cl (stereo not drawn) [Example 1033, 2-[5-Chloro-2-(7-hydroxy-6,7,8,9-tetrahydro-5H-benzocyclohepten-2-ylamino)-pyrimidin-4-ylamino]-N,N-dimethyl-benzenesulfonamide] showed an IC50 [1, 5] of under 100 nM and an IC50 [2, 6] of 100 to 1000 nM.

Work on CCN1CCc2ccc(Nc3ncc(Cl)c(Nc4ccccc4S(=O)(=O)NC)n3)cc2CC1 [Example 32, 2-[5-Chloro-2-(3-ethyl-2,3,4,5-tetrahydro-1H-benzo[d]azepin-7-ylamino)-pyrimidin-4-ylamino]-N-methyl-benzenesulfonamide] yielded an IC50 [1, 9] of under 100 nM and an IC50 [2, 10] of under 100 nM.

COc1cc2c(cc1Nc1ncc(Cl)c(Nc3ccc(N4CCN(C)CC4)cc3OC)n1)CCN(CC(C)(F)F)CC2 [Example 781, 5-Chloro-N*2*-[3-(2,2-difluoro-propyl)-8-methoxy-2,3,4,5-tetrahydro-1H-benzo[d]azepin-7-yl]-N*4*-[2-methoxy-4-(4-methyl-piperazin-1-yl)-phenyl]-pyrimidine-2,4-diamine] showed an IC50 [1, 3] of under 100 nM and an IC50 [2, 4] of over 10000 nM.

With CCN1CCc2ccc(Nc3ncc(Cl)c(Nc4ccccc4OCC#N)n3)cc2CC1 [Example 928, {2-[5-Chloro-2-(3-ethyl-2,3,4,5-tetrahydro-1H-benzo[d]azepin-7-ylamino)-pyrimidin-4-ylamino]-phenoxy}-acetonitrile] the IC50 [1, 3] was under 100 nM and the IC50 [2, 4] was under 100 nM.

In the case of CCN1C(=O)CN(C(C)=O)Cc2ccc(Nc3ncc(Cl)c(Nc4ccsc4C(=O)NC)n3)cc21 [Example 1853, 3-[2-(4-Acetyl-1-ethyl-2-oxo-2,3,4,5-tetrahydro-1H-benzo[e][1,4]diazepin-8-ylamino)-5-chloro-pyrimidin-4-ylamino]-thiophene-2-carboxylic acid methylamide], the IC50 [1, 7] is reported as 1000 to 10000 nM and the IC50 [2, 8] is reported as under 100 nM.

Work on COc1cc2c(cc1Nc1ncc(Cl)c(N[C@@H]3CCCC[C@H]3NS(C)(=O)=O)n1)CCC(NCCO)CC2 (single isomer, unassigned) [Example 1094] yielded an IC50 [1, 5] of under 100 nM and an IC50 [2, 6] of over 10000 nM.

Work on COc1ccc(Nc2nc(Nc3ccc4c(c3)C(C)(C)CCC(=O)N4)ncc2Cl)c(-n2cccn2)c1 [Example 611, 7-[5-Chloro-4-(4-methoxy-2-pyrazol-1-yl-phenylamino)-pyrimidin-2-ylamino]-5,5-dimethyl-1,3,4,5-tetrahydro-benzo[b]azepin-2-one] yielded an IC50 [1, 3] of under 100 nM and an IC50 [2, 4] of 1000 to 10000 nM.

Work on CNC(=O)c1ccccc1Nc1nc(Nc2cc3c(cc2OC)NC(=O)CCC3(C)C)ncc1Cl [Example 1671, 2-[5-Chloro-2-(8-methoxy-5,5-dimethyl-2-oxo-2,3,4,5-tetrahydro-1H-benzo[b]azepin-7-ylamino)-pyrimidin-4-ylamino]-N-methyl-benzamide] yielded an IC50 [1, 7] of under 100 nM and an IC50 [2, 8] of 1000 to 10000 nM.
